The conditions of series [1]: conjugate acid of weak base; cited from earlier work.
Series [2] in a line: pH adjustment of formula I compound with 0.1 mol/L NaOH solution, HPLC. Type of series: physicochemical. The note with it: pH adjusted with 0.1 mol/L NaOH solution added dropwise. The procedure:
The inventors have repeated the method reported in WO2004014879 for multiple times and analyzed and validated the reported method from the point of view of local pH value.
The method for measuring HPLC purity of Formula I compound is shown as follows.
HPLC analytical column: YMC-ODS 250×4.6 mm, 5 μm
Mobile phase: acetonitrile: phosphate buffer (pH 3.0)=[…]
Column temperature: 35±5° C.
Dilution: phosphate buffer in water
Wave length detected: 210 nm
Volume of sample injection: 10 μl
Retention time of the main peak: approx. 18 min.
According to the purification process for micafungin in WO2004014879, ion exchange was applied to 0.5 g of compound of formula I by using 50 ml of cation exchange resin UBK510L. The product was sampled and analyzed. HPLC purity was determined as 99.54%. […] The product was sampled and analyzed. HPLC purity was determined as 98.01% (See FIG. 2). […] The produce was sampled and analyzed. HPLC purity was determined as 97.90%. […] The product was sampled and analyzed. HPLC purity was determined as 97.81%. […] The product was sampled and analyzed. HPLC purity was determined as 97.75%. […] The product was sampled and analyzed. HPLC purity was determined as 97.67%. […] The product was sampled and analyzed. HPLC purity was determined as 97.59%. […] The product was sampled and analyzed.

Series [3] can be described thus: pKa values of compounds of benzene sulfonic acid. The format is physicochemical. The method, then: Generally, there are two ways for preparing acid into sodium salt. One is exchange using cationic resin; the other is via adjusting pH value. Virtually, preparing sodium salt by adjusting pH value is a process of neutralization reaction between acid and base. It includes two types of reactions, i.e. the reaction between strong acid and strong base, and the reaction between […]. If strong base solution is added into strong acid solution for adjusting pH value, there is a sharp change in the pH value of the solution (the change of pH value is illustrated in FIG. 6), and the pH value will be instantly altered by 8. Therefore in the practical production, it is hard to control the pH value and a slightest mistake could lead to an overregulated pH value. In WO2004014879, a 0.1 mol/L NaOH solution was used to adjust pH value to 6-8 for obtaining formula II compound. It was actually a reaction between strong acid and strong base. […] Therefore, theoretically, the method using NaOH solution to adjust pH values for obtaining sodium salt is unsuitable for preparation of formula II compound.

Like-named read-outs stand apart in the source and are kept apart here. Marks after values point to notes of the source that are not given here. Numbered stars: 1 amine (or outer) side, 2 acyl side, 3 side chain; on linkers, the order of the positions; unused ones are H or OH. Bridge positions count the residues as written; N and C are the ends. Square brackets hold non-standard residues; d marks the D form. Peptide text beside a SMILES is read from it. * marks the point of attachment. hTyr(3S-OH,4S-OH,3'-OSO3H) = N[C@H](C(=O)O)[C@H](O)[C@@H](O)c1ccc(O)c(OS(=O)(=O)O)c1; Orn(4R-OH,5R-OH) = O=C([C@H](C[C@@H](O)[C@@H](O)N[*:3])N[*:1])[*:2]; Pro(3S-OH,4S-Me) = C[C@H]1CN[C@H](C(=O)O)[C@H]1O; X1 = CCCCCOc1ccc(-c2cc(-c3ccc(C(=O)*)cc3)no2)cc1; Gln(3R-OH) = NC(=O)C[C@@H](O)[C@H](N)C(=O)O; Hyp = O=C(O)[C@@H]1C[C@@H](O)CN1 Bounds are passed on as bounds.

By pKa is commonly meant the pH at which an ionisable group is half protonated. Read a high pKa as a weaker acid or stronger base.

On to `O=C(O)CC(O)C(=O)O` (centres unmarked) [malic acid], for which, in series [1], the pKa1 is 3.40^a and the pKa2 is 5.13.

As to `O=S(O)O` [sulfurous acid], in series [1], the pKa1 is reported as 1.90^a and the pKa2 is reported as 7.20.

For the compound `C/C=C/C=C/C(=O)O` [sorbic acid], the pKa1 in series [1] is reported as 4.76.

In the case of `OB(O)O` [boric acid], in series [1], the pKa1 is on record as 9.24, the pKa2 is reported as 12.74^a and the pKa3 was 13.80^a.

Regarding `CCCCCOc1ccc(-c2cc(-c3ccc(C(=O)N[C@H]4C[C@@H](O)[C@@H](O)NC(=O)[C@@H]5[C@@H](O)[C@@H](C)CN5C(=O)[C@H]([C@H](O)CC(N)=O)NC(=O)[C@H]([C@H](O)[C@@H](O)c5ccc(O)c(OS(=O)(=O)O)c5)NC(=O)[C@@H]5C[C@@H](O)CN5C(=O)[C@H]([C@@H](C)O)NC4=O)cc3)no2)cc1` [micafungin, Micafungin] (X1-[Orn(4R-OH,5R-OH)]T[Hyp][hTyr(3S-OH,4S-OH,3'-OSO3H)][Gln(3R-OH)][Pro(3S-OH,4S-Me)]; lactam 1-C), the “degradation after pH adjustment (HPLC)” value in series [2] was “obvious degradation”. In series [3], this compound gave a pKa of less than 1. Besides, the stability in solution result is, setting by setting: (pH 4.0-6.0) “more stable”; (pH 4.0-7.0) “stability is good”; (pH 4.5-5.5) “most stable”; (pH of solution adjusted to 7) “no obvious degradation”; (solution with high pH value) “poor stability”.

Turning to `S` [hydrosulfuric acid], in series [1], the pKa1 is listed as 6.88 and the pKa2 is 14.15^a.
